“Also recorded” adds a separate entry of the source.
Key:
[1] = system: neural stem cells in the sub-ventricular zone (SVZ) of the rat brain; assay: In vivo i.c.v. infusion, neural stem cells of the SVZ (BrdU, DCX immunohistochemistry)
Procedure: Male Long-Evans rats weighing 300-325 g (3-4 months old) were housed following a natural day-night cycle with food and water ad libitum. Prior to surgery, rats were anesthetized with equithesin (3 ml/kg, i.p.) and then placed on a stereotaxic frame. Using an electrode micromanipulator, the outlet of an osmotic micropump was implanted into the left cerebral ventricle following the coordinates D=3.4 mm, L=1.4 mm and AP=0.92 mm caudal to bregma. The tank of the osmotic pump was implanted in a subcutaneous pocket in the midscapular area of the back of the rat. After surgery, rats were placed on a heating blanket for recovery. During the whole procedure, the body temperature was monitored and kept stable at 37° C. SP-224 at 375 μM solubilized in polypropylene glycol/glycerol/distilled water (50/25/25) was perfused by i.c.v. route at 5 μl per hour for 2 weeks. Rats were sacrificed 3 weeks after the end of the brain infusion by intracardiac perfusion, first with a washing solution (NaCl 8 g/l, dextrose 4 g/l, sucrose 8 g/l, calcium chloride 0.23 g/l, sodium cacodylate anhydrous 0.25 g/l, in deionized water) and then with fixative cacodylate buffer (sucrose 40 g/l, paraformaldehyde 40 g/l, sodium cacodylate anhydrous 10.72 g/l, in deionized water). Brains were stored in fixative cacodylate buffer for an additional week before being embedded in paraffin. To study the neural stem cells proliferation rats were daily injected with a BrdU solution at 100 mg/kg. The first injection took place the day following the surgery and the last injection was performed the day previous to the euthanasia.
Brains were embedded in a paraffin block […] and cut into 20-μm thick slices.
This experiment was conducted to validate the results obtained in vitro and to assess the ability of the SP-224 to induce a neuronal differentiation of the neural stem cells present in the sub-ventricular zone (SVZ) of the rat brain. The SP-224 was administered in a solution at 375 μM by intra-cerebroventricular route for 2 weeks, corresponding to a total quantity of […] of SP-224 per rat. […]

[2] = system: Mouse embryonic teratocarcinoma P19 cells; assay: Neurites-like sprouting in P19 cells; format: cell-based; settings: 90 μM, 2 days, then 5 days wash-out
Procedure: (§1) Mouse embryonic teratocarcinoma P19 cells were cultured at 37° C. in […] in Alpha Minimum Essential medium with ribonucleosides and deoxyribonucleosides containing bovine calf serum (7.5%) and fetal bovine serum (2.5%) on 13 mm diameter glass cover-slip. PC12 cells (rat pheochromocytoma neurons) were cultured at 37° C. and 5% CO2 in RPMI 1640 medium devoid of glutamine and supplemented with 10% fetal bovine serum and 5% horse serum on 13 mm diameter glass cover-slip. When cells reached 70% confluence, the medium was replaced fresh medium containing 90 μM SP-224. P19 and PC12 cells were then incubated for 2 days before SP224 was washed out and replaced by standard medium. The culture medium was changed every 2 days for 5 days or every 2 days for 30 days before cells were fixed for immunocytochemistry. The NT2 cells were treated for 5 days and washed-out for 10 days.
(§2) The above-referenced cell lines were used because they have been extensively used as a model of neuronal differentiation (Houldsworth et al., 2002; Chou et al., 2003; Das et al., 2004). To induce the sprouting, cells were plated in 6-well plates and treated for 2 days (P19) or 5 days (PC12 and NT2) with 90 μM SP-224 before being washed with fresh medium and cultured for 5 (P19) or 10 (PC12 and NT2) more days. […] Meantime, we observed a growth arrest of the treated-cells. […]

[3] = system: NT2 human neuronal cells; assay: Neurites-like sprouting in NT2 cells; format: cell-based; settings: 90 μM, 5 days, then 10 days wash-out
Procedure: as §1, §2

[4] = system: P19 cells; assay: Neuronal and glial markers in differentiated P19 cells (immunocytochemistry); format: cell-based, mouse
Procedure: as §1
P19 cells were fixed with methanol at −20° C. for 15 minutes before being permeabilized for 30 minutes at room temperature with 1×PBS pH=7.4 containing 0.1% Triton 100×. Cell were incubated for 24 hours at 4° C. with antibodies raised against GAP43 (1/1000), DCX (1/3000), βIII Tubulin (1/500), synaptophysin (1/200), MAP2 (1/500), ChAT (1/2000), GFAP (1/1000) or CNPase (1/250). […] Cells nucleus was counterstained using DAPI or ethidium bromide.
The ability of SP-224 to induce the neuronal differentiation of the P19 cells was assessed as follows. P19 cells were treated for 2 days followed by a 5 days wash out period (FIG. 26). The neuronal markers expression was also studied after 28 days (FIG. 27) in order to in order to verify whether the expression observed at 5 days was temporary or permanent. No neuronal marker was observed on the control except for the synaptophysin for which the staining was, however, very weak (FIG. 26C). […] After 28 days of wash out the neuronal differentiation is even more important.

[5] = system: PC12 rat pheochromocytoma cells; assay: Neurites-like sprouting in PC12 cells; format: cell-based; settings: 90 μM, then wash-out
Procedure: as §1, §2

[6] = 375 μM i.c.v., 5 μl per hour for 2 weeks, sacrifice 3 weeks later
[7] = 2 days treatment, 28-30 days wash out

SMILES: CC1CCC2(NC1)OC1CC3C4CC=C5CC(O)CCC5(C)C4CCC3(C)C1C2C [SP224, (20α)-25ζ-methyl-(22R,26)-azacyclofurost-5-en-3ζ-ol]
- toxic effect on the brain tissue ([1]; 375 μM i.c.v. for 2 weeks): without any apparent toxic effect on the brain tissue
- BrdU immunostaining, neural stem cell self-renewal/proliferation in the SVZ [1, 6]: able to induce a self-renewal of the neural stem cells in the SVZ; also recorded: dramatic increase of the BrdU
- expression of early neuronal marker DCX in the SVZ cells [1, 6]: induced the expression of the early neuronal marker DCX
- sprouting of P19 cells [2]: significant sprouting
- sprouting of NT2 cells [3]: significant sprouting
- astrocyte marker GFAP / differentiation into astrocytes ([4]; 90 μM 2 days, 5 days SP-224 free medium): no positive GFAP signal was detected; also recorded: did not trigger the differentiation of the P19 cells into astrocytes
- expression of ChAT ([4]; 90 μM 2 days, 5 days wash out): strong expression
- expression of MAP2 ([4]; 90 μM 2 days, 5 days wash out): strong expression
- expression of migrating neuroblasts marker DCX ([4]; 90 μM 2 days, 5 days wash out): strongly expressed
- expression of synaptophysin ([4]; 90 μM 2 days, 5 days wash out): strong expression
- expression of βIII tubulin ([4]; 90 μM 2 days, 5 days wash out): strong expression
- network of axons and dendrites (βIII tubulin staining) [4, 7]: dramatically extended
- synaptophysin labeling [4, 7]: established synaptic connections
- sprouting of PC12 cells [5]: significant sprouting
